Experimental data from patent US11752116B2, “Method of viral inhibition” (priority 2013, dated 2023).

What was measured:
DENV-2 [1] = experiment: DENV-2 infectivity assay in Vero cells, viral RNA copies in culture medium by RT-PCR; assay type: cell-based; conditions: MOI of 1
Protocol: To test the specificity of 4-HPR and 4-oxo-4-HPR for anti-DENV activity Vero cells were infected with DENV-2 with a multiplicity of infection (MOI) of 1, in the presence of drug diluent (untreated) or the indicated compounds (10 μM in FIG. 3A, or 10 μM or 5 μM as indicated in FIG. 3B) for 2 h, followed by removal of the virus/drug inoculums, and addition of fresh 2% FCS maintenance medium. At 24 h post infection (p.i.) the culture medium was collected and the viral RNA extracted using QIAamp viral RNA mini kit (Qiagen). Absolute RNA copies present in each sample were determined by Taqman One Step RT-PCR (Applied Biosystems), as an estimate of virus titre by extrapolation from a standard curve generated from in vitro transcribed DENV RNA. Data shown are the mean+standard error of the mean (SEM) for 3 (FIG. 3A) or 2 (FIG. 3B) independent experiments. Statistical analysis (Student's ttest) was performed using GraphPad Prism software.

DENV-2 NS5 / IMPβ1 = DENV-2 NS5 / IMPβ1 (Dengue virus type 2, UniProt P14340); experiment: AlphaScreen binding of His6-NS5 to biotinylated IMPβ1; conditions: 30 nM His6-NS5, 3 nM biotinylated IMPβ1, increasing concentrations of 4-HPR
Protocol: (§1) To investigate the specificity of 4-HPR inhibition of NS5-importin association, the binding of 30 nM His6-NS5 to 10 nM IMPα/β, (IMPα/β heterodimer containing biotinylated IMPβ1), 3 nM IMPαΔIBB (biotinylated IMPa with the IMPβ-binding domain removed), or 3 nM biotinylated IMPβ1, in the presence of increasing concentrations of 4-HPR, was investigated.

[2] = Cytotoxicity analysis in PBMCs; assay type: cell-based; conditions: human
DENV-2 strain (S221) = experiment: Lethal mouse infection model, AG129 mice infected with mouse adapted DENV-2 strain S221; assay type: in vivo; conditions: 20 mg/kg orally
From the text: Mice have previously been used as an in vivo model for 4-HPR pharmacokinetics. To examine the effect of 4-HPR on DENV infection in vivo, a lethal mouse infection model, which uses a mouse adapted DENV-2 strain (S221), to infect Sv/129 mice deficient in type I and II interferon receptors (AG129) was used (Zellweger et al., 2010, Cell Host Microbe). Viral infection in this system is enhanced by intraperitoneal delivery of a sub-neutralizing concentration of 4G2 antibody 1 day prior to infection, resulting in peak viremia 3 days p.i. and death of infected mice by day 5. Here, mice were treated with 20 mg/kg of 4-HPR, administered orally at the time of infection, then once (QD) or twice (BID) daily for 5 consecutive days. Consistent with previous reports, infected, untreated mice all died by day 5 (FIG. 8B). Once daily treatment of mice with 4-HPR was sufficient to provide protection to 20% of mice, which recovered from the infectious challenge, whereas increasing the dose to 2 treatments daily, improved protection to 70% (7 of 10 mice recovered from the infectious challenge).
Data are the mean+SEM. Statistical analysis (Student's t test) was performed using Graph Pad Prism software (ns, not significant).

CHIKV = CHIKV infection of HEK293T cells, plaque assay; assay type: cell-based; conditions: 5 μM, 24 h p.i.
Protocol: HEK293T cells were treated with 5 μM 4-HPR or 4-MPR for 2 h, then infected with CHIKV for 1 h (MOI of 0.1) in the absence of compound (FIG. 9A). Alternatively, HEK293T cells were infected with CHIKV for 1 h (MOI of 0.1) without pre-treating the cells with compound (FIG. 9B). In both instances, virus inoculums were removed, then fresh medium containing the indicated compound was added (FIG. 9A and FIG. 9B). Infectious virus titres were determined by plaque assay 24 h p.i. Data are the mean+standard deviation of one experiment performed in duplicate wells, represented as plaque forming units per ml (PFU/ml).

[3] = tested on: West Nile virus, Kunjin strain (WNVKUN); experiment: West Nile virus (Kunjin strain) infection of Vero cells, plaque assay; assay type: cell-based; conditions: 10 μM, 4 h incubation of Vero cells at the time of infection
Protocol: FIG. 9C. Viral titre from a plaque assay conducted from Vero cells infected with West Nile virus (Kunjin strain; WNVKUN) after treatment with 10 μM 4-HPR for 4 h.

DENV-3 = experiment: Plaque assay in Huh-7 cells, DENV-3; assay type: cell-based; conditions: Dengue virus, DENV3, Huh-7, 48 h, read-out: EC50, infectious virus titre DENV 3
Protocol: To ensure the antiviral activity of 4-HPR is not cell-line specific Huh-7 cells were also infected with DENV-1, 2, 3 or 4 (MOI of 0.3) in the presence of increasing concentrations of 4-HPR, with infectious virus titres determined by plaque assay at 48 h p.i.

DENV-2 NS5 / IMPα/β = DENV-2 NS5 / IMPα/β (Dengue virus type 2, UniProt P14340); experiment: AlphaScreen binding of His6-NS5 to IMPα/β heterodimer
Protocol: AlphaScreen®, a luminescent bead-based assay that measures direct protein-protein interactions, was used to examine the binding of 3 nM His6-NS5 to 10 nM IMPα/β (IMPα/β heterodimer containing biotinylated IMPβ1) in the presence of increasing concentrations of 4-HPR, 4-MPR or ATRA (FIG. 1A), or 4-oxo-4-HPR, 4-HPR or 4-MPR (FIG. 1B). Data are the mean±standard deviation (SD) of triplicate wells from a single typical experiment.
as §1

DENV-2 [4] = experiment: Delayed addition in DENV-2 infected Huh-7 cells, viral titre by plaque assay; assay type: cell-based; conditions: 7.5 μM added 12 h p.i., at 60 h p.i.
Protocol: (§2) To gain further insight into the mode of action of 4-HPR, the human liver carcinoma cell line, Huh-7 cells were infected with DENV-2 (MOI of 1), followed by delayed addition of drug diluent DMSO (DENV only), 7.5 μM 4-HPR, 7.5 μM 4-MPR or 10 μM NITD008 (a previously described adenosine nucleoside inhibitor), 12 h post infection. Cells were lysed at the indicated times, RNA was extracted by Trizol and analysed by qPCR with fold change in expression of NS1 calculated relative to the untreated control (FIG. 5B). Concurrently, culture medium was collected and viral titres determined by plaque assay (FIG. 5C).

DENV-2 NS5 / IMPαΔIBB = DENV-2 NS5 / IMPαΔIBB (Dengue virus type 2, UniProt P14340); experiment: AlphaScreen binding of His6-NS5 to IMPαΔIBB
Protocol: as §1

DENV-2 [5] = experiment: Delayed addition in DENV-2 infected Huh-7 cells, NS1 RNA by qPCR; assay type: cell-based; conditions: 7.5 μM added 12 h p.i., at 24 h p.i.
Protocol: as §2

Q: Which results are given for CC1=C(/C=C/C(C)=C/C=C/C(C)=C/C(=O)Nc2ccc(O)cc2)C(C)(C)CCC1 [4-HPR, N-(4-hydroxyphenyl) retinamide]?
A: reduction in viral RNA copies at 24 h p.i. (DENV-2 [1]; 5 μM compound for 2 h during infection): ~1 log; reduction in viral RNA copies at 24 h p.i. (DENV-2 [1]; 10 μM compound for 2 h during infection): 2 log; NS5 binding to IMPβ1 alone (DENV-2 NS5 / IMPβ1): largely unaffected; CC50 at 48 h [2]: > 13 µM; average plasma viral titre lower than untreated group, 3 days p.i. (DENV-2 strain (S221); BID treatment group): 65%; average plasma viral titre 3 days p.i. (DENV-2 strain (S221); QD treatment group): small reduction; protection (mice recovered from the infectious challenge) (DENV-2 strain (S221); once daily (QD) for 5 days): 20%; protection (mice recovered from the infectious challenge) (DENV-2 strain (S221); twice daily (BID) for 5 days): 70%; reduction of infectious CHIKV produced (CHIKV; HEK293T cells pre-treated 2 h with compound): ~100%; reduction of infectious CHIKV produced (CHIKV; HEK293T cells, compound added after infection): ~95%; reduction in infectious virus produced (WNVKUN) [3]: 89%; EC50 (DENV-3): 1400 nM; IC50 (DENV-2 NS5 / IMPα/β): 1200 nM; block of association of DENV-2 NS5 with IMPα/β (DENV-2 NS5 / IMPα/β; 3 nM His6-NS5, 10 nM IMPα/β, increasing concentrations of compound): able to block association; virus titre lower than untreated and 4-MPR-treated controls (DENV-2 [4]): 3 logs; IC50 (DENV-2 NS5 / IMPαΔIBB): 1600 nM; reduction in viral RNA levels (NS1 qPCR) (DENV-2 [5]): 1 log
